[APT] = modified deoxyadenosine dA^PT as named in the publication

Data set [1] relates to HBV. To be noted: cited from earlier work.
For data set [2], the system named is HIV. Particulars: cited from earlier work.
For data set [3], the system named is human platelet. Particulars: cited from earlier work.
Data set [4] has as its system mouse leukemia cells. To be noted: cited from earlier work.
The test system of data set [5] is 24-mer single-stranded target DNA sequence of SEQ ID NO: 4 (X=T). Put plainly: thermal denaturation (melting) studies of DNA duplexes followed by absorption spectroscopy. Type of data set: binding. Particulars: duplex with SEQ ID NO: 4 (X=T); 1 μM each strand, 10 mM sodium phosphate pH 7, 150 mM NaCl, 1 mM EDTA; 260 nm. The protocol: Oligonucleotide concentrations were 1 μM (each strand) in a 10 mM sodium phosphate, pH 7, buffer containing 150 mM NaCl and 1 mM EDTA. Temperature was increased from 10° C. to 80° C. over 140 min. Melting curves were recorded at X, =260 nm.
The influence of dA replacement (one or two) by the pyrazolo[1,5-a]-1,3,5-triazine derivative (dA^PT) on duplex stability was investigated by thermal denaturation studies, followed by absorption spectroscopy, using DNA duplexes obtained by mixing the modified oligonucleotides of SEQ ID NOs. 1 and 2 with the 24-mer single-stranded target DNA sequence of SEQ ID NO: 4 (X=T). The natural deoxyadenosine was also incorporated in the same positions (SEQ ID NO: 5) for comparison (duplex obtained by hybridization of the oligonucleotides of SEQ ID NOs: 4+5).

For data set [6], the system named is oligonucleotide of SEQ ID NO: 4 (X=T). Put plainly: CD spectra of DNA duplexes. Type of data set: physicochemical. Particulars: 4 μM each strand, 10 mM sodium phosphate pH 7, 150 mM NaCl, 1 mM EDTA, 10° C., 220-300 nm; compared with unmodified duplex 4+5. The source says:
CD spectra of the DNA duplexes obtained from the hybridization of the oligonucleotides of SEQ ID NOs: 4+1 and 4+2, containing one or two dA^PT, respectively, were compared to that of the parent unmodified duplex obtained by hybridization of the oligonucleotides of SEQ ID NOs: 4+5.

Data set [7] in a line: acidic hydrolysis (stability of the glycosidic bond). The data set is classed as physicochemical. To be noted: 80% acetic acid at 65° C. for 45 hr followed by concentrated ammonium hydroxide. The source says: In order to study the stability of the glycosidic bond of the dA^PT described above in acidic conditions, compared with that of dA, two oligonucleotides containing a single incorporation of either dA^PT (SEQ ID NO: 3) or the natural dA (SEQ ID NO: 6) were synthesized.

With `Nc1ncnc2c([C@H]3O[C@@H](CO)[C@H](O)[C@@H]3O)cnn12` [4-amino-8-(β-L-ribofuranosyl)pyrazolo[1,5-a]-1,3,5-triazine], in data set [1], the anti-HBV activity entry is on record as “no significant”. The anti-HIV activity result in data set [2] is given as “no significant”. In the case of `CNc1nc(C)nc2c([C@H]3C[C@H](OP(=O)(O)O)[C@@H](COP(=O)(O)O)O3)cnn12` [compound 2, 8-(2′-deoxy-β-D-ribofuranosyl)-2-methyl-4-(N-methylamino)pyrazolo[1,5-a]-1,3,5-triazine-3′,5′-bisphosphate], in data set [3], the “inhibition of ADP-induced human platelet aggregation” value is “strongly inhibits” and the “inhibition of ADP-induced human platelet shape change” value was “strongly inhibits”. Consider `Nc1ncnc2c([C@@H]3O[C@H](CO)[C@@H](O)[C@H]3O)cnn12` [compound 10, 4-amino-8-(β-D-ribofuranosyl)pyrazolo[1,5-a]-1,3,5-triazine], for which the “activity compared with formycin” value in data set [4] (all systems tested) was “more active than formycin”. Also, the “inhibitory activity against various mouse leukemia cells” value in data set [4] is reported as “moderate inhibitory activity”. For the compound “SEQ ID NO: 1: 18-mer 5′d-(TAC CGC GTG CAA^PT CCC TCT)3′ with one dA^PT incorporation (DNA TACCGCGTGCATCCCTCT; DNA, [APT] at 12, backbone not given here)”, in data set [5], the “melting temperature [Tm]” value came out at 69.6 °C. Also, the “duplex form from CD spectra” value in data set [6] was “still forms a B-form duplex”. With “SEQ ID NO: 2: 18-mer 5′d-(TA^PTC CGC GTG CAA^PT CCC TCT)3′ with two dA^PT incorporations (DNA TNCCGCGTGCANCCCTCT; listed as DNA, chemistry not fully specified)”, the “melting temperature [Tm]” value in data set [5] is 69.3 °C. Further, in data set [6], the “duplex form from CD spectra” value is “still forms a B-form duplex”. Turning to “SEQ ID NO: 3: 5′d-(TTC CTC TTT CTA^PT CCC TCT)3′, a sole dA^PT and no other purine (DNA TTCCTCTTTCTNCCCTCT; listed as DNA, chemistry not fully specified)”, the “stability in acidic conditions (degradation)” value in data set [7] is “not degraded”. As to “SEQ ID NO: 5: unmodified 5′d-(TAC CGC GTG CAA CCC TCT)3′ with natural deoxyadenosine (DNA TACCGCGTGCAACCCTCT; DNA, backbone not given here)”, in data set [5], the “melting temperature [Tm]” value is 69 °C. Turning to “SEQ ID NO: 6: unmodified 5′d-(TTC CTC TTT CTA CCC TCT)3′ with natural dA (DNA TTCCTCTTTCTACCCTCT; DNA, backbone not given here)”, in data set [7], the “stability in acidic conditions (degradation)” value is “fully fragmented”.

(Values after US9994604B2, “Pyrazolotriazolyl nucleoside analogues and oligonucleotides comprising them” (Bio-Lab Ltd., priority 2012, dated 2018).)
